The results in this text go back to US9751881B2, “Inhibitors of the renal outer medullary potassium channel” (Merck Sharp & Dohme Corp., priority 2013, dated 2017).

The structures appear in SMILES notation. pIC50: −log10 of the molar value. Counter-ions that a name gives are not always drawn.

hROMK (hKir1.1), sequence (P48048 whole entry): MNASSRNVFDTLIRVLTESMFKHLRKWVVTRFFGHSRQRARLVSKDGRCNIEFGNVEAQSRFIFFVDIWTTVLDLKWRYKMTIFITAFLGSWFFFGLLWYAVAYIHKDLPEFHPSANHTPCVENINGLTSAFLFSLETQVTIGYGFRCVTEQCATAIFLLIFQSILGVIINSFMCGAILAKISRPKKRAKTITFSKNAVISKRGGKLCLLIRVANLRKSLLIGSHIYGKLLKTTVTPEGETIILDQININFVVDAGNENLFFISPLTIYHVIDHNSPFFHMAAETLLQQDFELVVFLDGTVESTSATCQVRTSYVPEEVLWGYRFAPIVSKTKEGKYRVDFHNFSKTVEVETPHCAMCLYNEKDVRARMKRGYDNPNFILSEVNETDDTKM

The assay addresses hROMK (hKir1.1) (Homo sapiens (Human), UniProt P48048). Briefly: Thallium Flux Assay (ROMK channel functional thallium flux, FLIPR-Tetra). The format is cell-based. As to conditions: HEK293 cells stably expressing hROMK (hKir1.1); unit not given in Table 4 (IC50 potencies less than 1 μM); read-out: ROMK TI IC50. On the procedure:
Cell Culture Conditions—HEK293 cells stably expressing hROMK (hKir1.1) were grown at 37° C. in a 10% CO2 humidified incubator in complete growth media: Dulbecco's Modified Eagle Medium supplemented with non-essential amino acids, Penicillin/Streptomycin/Glutamine, G418 and FBS. At >80% confluency, the media was aspirated from the flask and rinsed with 10 mL calcium/magnesium-free PBS. […] To dislodge the cell, the side of the flask was gently banged with one's hand. The cells completely titrated and then the cells were transferred to 25 mL complete media, centrifuged at 1,500 rpm for 6 min followed by resuspension in complete growth media and determine cell concentration. […] Under ideal growth conditions and appropriate tissue culture practices, this cell line is stable for 40-45 passages.
FluxOR Kit Components (Invitrogen F10017)
• FluxOR™ Reagent (Component A) • FluxOR™ Assay Buffer (Component B)—10× Concentrate • PowerLoad™ Concentrate (Component C)—100× Concentrate • Probenecid (Component D)—Lyophilized sample is kept at −20° C. Water soluble, 100× after solubilization in 1 mL water. […] Store at 4° C. • Thallium sulfate (Tl2SO4) Concentrate (Component G)—50 mM in water. […] Can be stored at room temperature • Stimulant Buffer (prepared at 5× final concentration in 1× FluxOR™Chloride-Free Buffer): 7.5 mM thallium sulfate and 0.75 mM potassium sulfate (to give a final assay concentration of 3 mM Thallium/0.3 mM potassium). Store at 4° C. when not in use. If kept sterile, this solution is good for months.
• 1. Seed HEK-hKir1.1 cells (50 μl at 20,000 cells/well) in 384-well PDL coated Microplates • 2. Allow cells to adhere overnight in humidified 37° C./10% CO2 incubator • 3. Completely remove cell growth media from microplate and replace with 25 μl loading buffer • 4. Incubate Microplate at room temperature, protected form light, for 90 min • 5. Remove loading buffer and replace with 25 μl 1× Assay Buffer±test compound. • 6. Incubate microplate at room temperature, protected from light, for 30 min • 7. […] Excitation=400 nm, Emission=460 & 580 nm. Collect data for ˜10 min.
Data Calculation—The fluorescence intensity of wells containing 3 μM of a standard control ROMK inhibitor of the present invention was used to define the ROMK-sensitive component of thallium flux. Fluorescence in the presence of test compounds was normalized to control values to provide % fluorescence change.
Turning to `N#Cc1ccc(N2CCC3(CCN(CC(O)c4ccc5c(c4C4CC4)COC5=O)CC3)C2)nc1` (centres unmarked) [Example 26, 6-(8-(2-(4-Cyclopropyl-1-oxo-1,3-dihydroisobenzofuran-5-yl)-2-hydroxyethyl)-2,8-diazaspiro[4.5]decan-2-yl)nicotinonitrile], the pIC50 was 6.34.

Take `Cc1c([C@@H](O)CN2CCC3(CC2)CCN(c2ccc(S(C)(=O)=O)cc2)C3)ccc2c1COC2=O` [Example 31, (R)-5-(1-Hydroxy-2-(2-(4-(methylsulfonyl)phenyl)-2,8-diazaspiro[4.5]decan-8-yl)ethyl)-4-methylisobenzofuran-1(3H)-one]: the pIC50 is 7.38.

Consider `Cc1c([C@@H](O)CN2CCC3(CCN(c4ncc(-n5cnnn5)cn4)CC3)C2)ccc2c1COC2=O` [Example 54, (R)-5-(2-(8-(5-(1H-tetrazol-1-yl)pyrimidin-2-yl)-2,8-diazaspiro[4.5]decan-2-yl)-1-hydroxyethyl)-4-methylisobenzofuran-1(3H)-one], for which the pIC50 is 6.58.

Turning to `Cc1c([C@@H](O)CN2CCC3(CC2)CCN(c2ccc(-n4ccnn4)cc2)C3)ccc2c1COC2=O` [Example 80], the pIC50 was 7.20.

Regarding `Cc1c([C@@H](O)CN2CCC3(CC2)CN(c2cnc(S(C)(=O)=O)cn2)C(=O)O3)ccc2c1COC2=O` [Example 92, (R)-8-(2-Hydroxy-2-(4-methyl-1-oxo-1,3-dihydroisobenzofuran-5-yl)ethyl)-3-(5-(methylsulfonyl)pyrazin-2-yl)-1-oxa-3,8-diazaspiro[4.5]decan-2-one], the pIC50 was 6.90.

`Cc1c([C@@H](O)CN2CCC3(CC2)CN(c2ccc(S(C)(=O)=O)cn2)C3)ccc2c1COC2=O` [Example 47, (R)-5-(1-Hydroxy-2-(2-(5-(methylsulfonyl)pyridin-2-yl)-2,7-diazaspiro[3.5]nonan-7-yl)ethyl)-4-methylisobenzofuran-1(3H)-one]: the pIC50 is 6.66.

Turning to `Cc1c(C(O)CN2CCC3(CC2)CCN(c2ncc(C#N)cc2F)CC3)ccc2c1COC2=O` (centres unmarked) [Example 113], the negative-log IC50 (pIC50) was 6.33.

Turning to `Cc1nc(N2CC3(CCN(C[C@H](O)c4ccc5c(c4C)COC5=O)CC3)CC2=O)ccc1-n1cnnn1` [Example 73, 8-[(2R)-2-Hydroxy-2-(4-methyl-1-oxo-1,3-dihydro-2-benzofuran-5-yl)ethyl]-2-[6-methyl-5-(1H-tetrazol-1-yl)pyridin-2-yl]-2,8-diazaspiro[4.5]decan-3-one hydrochloride], the pIC50 is 6.44.

As to `C[C@H]1Cc2cc(C(O)CN3CCC4(CC3)CN(c3ccc(C#N)cn3)C4)ccc2C(=O)O1` (stereo partly drawn) [Example 52A, 6-(7-(2-Hydroxy-2-((S)-3-methyl-1-oxoisochroman-6-yl)ethyl)-2,7-diazaspiro[3.5]nonan-2-yl)nicotinonitrile], the pIC50 is 7.31.

On to `Cc1c([C@@H](O)CN2CCC3(CC2)CN(c2ccc(C#N)cn2)C3=O)ccc2c1COC2=O` [Example 44, (R)-6-(7-(2-Hydroxy-2-(4-methyl-1-oxo-1,3-dihydroisobenzofuran-5-yl)ethyl)-1-oxo-2,7-diazaspiro[3.5]nonan-2-yl)nicotinonitrile], for which the pIC50 was 6.43.

Take `Cc1c([C@@H](O)CN2CCC3(CC2)CN(c2ccc(S(C)(=O)=O)cn2)CCO3)ccc2c1COC2=O` [Example 98, (R)-5-(1-Hydroxy-2-(4-(5-(methylsulfonyl)pyridin-2-yl)-1-oxa-4,9-diazaspiro[5.5]undecan-9-yl)ethyl)-4-methylisobenzofuran-1(3H)-one]: the negative logarithm of the IC50 (pIC50) is 6.42.

Consider `Cc1c([C@@H](O)CN2CCC3(CCCN(c4ccc(S(C)(=O)=O)cn4)C3)CC2)ccc2c1COC2=O` [Example 61, (R)-5-(1-hydroxy-2-(2-(5-(methylsulfonyl)pyridin-2-yl)-2,9-diazaspiro[5.5]undecan-9-yl)ethyl)-4-methylisobenzofuran-1(3H)-one], for which the pIC50 was 7.25.

For `COc1cc(N2CC3(CCN(C[C@H](O)c4ccc5c(c4C)COC5=O)CC3)OC2=O)ncc1C#N` [Example 95, (R)-6-(8-(2-Hydroxy-2-(4-methyl-1-oxo-1,3-dihydroisobenzofuran-5-yl)ethyl)-2-oxo-1-oxa-3,8-diazaspiro[4.5]decan-3-yl)-4-methoxynicotinonitrile], the pIC50 is 7.08.

For the molecule `Cc1c([C@@H](O)CN2CCC3(CC2)CN(c2cnc(S(C)(=O)=O)cn2)C3)ccc2c1COC2=O` [Example 49, (R)-5-(1-Hydroxy-2-(2-(5-(methylsulfonyl)pyrazin-2-yl)-2,7-diazaspiro[3.5]nonan-7-yl)ethyl)-4-methylisobenzofuran-1(3H)-one], the pIC50 is 6.93.

Consider `Cc1cc2c(cc1C(O)CN1CCC3(CC1)CCN(c1ccc(S(C)(=O)=O)cn1)C3)COC2=O` (centres unmarked) [Example 39, 5-(1-Hydroxy-2-(2-(5-(methylsulfonyl)pyridin-2-yl)-2,8-diazaspiro[4.5]decan-8-yl)ethyl)-6-methylisobenzofuran-1(3H)-one], for which the pIC50 was 6.71.

Turning to `Cc1c(C(O)CN2CCC3(CC2)CCN(c2ncc(C#N)cn2)CC3)ccc2c1COC2=O` (centres unmarked) [Example 109], the pIC50 was 7.84.

In the case of `Cc1c([C@@H](O)CN2CCC3(CC2)CC(=O)N(c2ccc(-n4cnnn4)c(F)c2)C3)ccc2c1COC2=O` [Example 69, 2-[3-Fluoro-4-(1H-tetrazol-1-yl)phenyl]-8-[(2R)-2-hydroxy-2-(4-methyl-1-oxo-1,3-dihydro-2-benzofuran-5-yl)ethyl]-2,8-diazaspiro[4.5]decan-3-one hydrochloride], the pIC50 is 6.76.

`Cc1cc(C#N)cnc1N1CCC2(CCN(CC(O)c3ccc4c(c3C)COC4=O)CC2)CC1` (centres unmarked) [Example 108]: the pIC50 is 6.59.

Take `Cc1c([C@@H](O)CN2CCC3(CCCN(c4ncc(-n5cnnn5)cn4)C3)CC2)ccc2c1COC2=O` [Example 43, (R)-5-(2-(2-(5-(1H-tetrazol-1-yl)pyrimidin-2-yl)-2,9-diazaspiro[5.5]undecan-9-yl)-1-hydroxyethyl)-4-methylisobenzofuran-1(3H)-one]: the pIC50 is 7.43.

For the molecule `Cc1c([C@@H](O)CN2CCC3(CC2)CC(=O)N(c2ccc4c(c2)CCS4(=O)=O)C3)ccc2c1COC2=O` [Example 66, 2-(1,1-Dioxido-2,3-dihydro-1-benzothiophen-5-yl)-8-[(2R)-2-hydroxy-2-(4-methyl-1-oxo-1,3-dihydro-2-benzofuran-5-yl)ethyl]-2,8-diazaspiro[4.5]decan-3-one hydrochloride], the pIC50 was 6.99.

As to `Cc1c([C@@H](O)CN2CCC3(CC2)CCN(c2ccc(C#N)nn2)C3)ccc2c1COC2=O` [Example 18, (R)-6-(8-(2-Hydroxy-2-(4-methyl-1-oxo-1,3-dihydroisobenzofuran-5-yl)ethyl)-2,8-diazaspiro[4.5]decan-2-yl)pyridazine-3-carbonitrile], the pIC50 is 6.81.

On to `Cc1c(C(O)CN2CCC3(CC2)CCN(c2nccnc2C#N)CC3)ccc2c1COC2=O` (centres unmarked) [Example 110], for which the pIC50 is 6.87.

As to `Cc1c(C(O)CN2CCC3(CC2)CCN(c2ncccc2C#N)CC3)ccc2c1COC2=O` (centres unmarked) [Example 107], the pIC50 was 6.75.

As for `COc1cc(N2CCC3(CCN(C[C@H](O)c4ccc5c(c4C)COC5=O)CC3)C2)ncc1C#N` [Example 82], the pIC50 was 7.48.

Take `Cc1c([C@@H](O)CN2CCC3(CC2)CCN(c2cc(C#N)ccc2F)C3)ccc2c1COC2=O` [Example 84]: the pIC50 was 6.59.

Consider `CC1=CS(=O)(=O)c2ccc(N3CCC4(CCN(C[C@H](O)c5ccc6c(c5C)COC6=O)CC4)C3)cc21` [Example 88], for which the pIC50 was 6.45.

Take `Cc1c([C@@H](O)CN2CCC3(CC2)CCN(c2ccc(S(C)(=O)=O)cc2)C3=O)ccc2c1COC2=O` [Example 75, 8-[(2R)-2Hydroxy-2-(4-methyl-1-oxo-1,3-dihydro-2-benzofuran-5-yl)ethyl]-2-[4-(methylsulfonyl)phenyl]-2,8-diazaspiro[4.5]decan-1-one hydrochloride]: the pIC50 was 7.07.

For `Cc1c([C@@H](O)CN2CCC3(CC2)CCN(c2ncc(-n4cnnn4)cn2)C3)ccc2c1COC2=O` [Example 15, (R)-5-(2-(2-(5-(1H-tetrazol-1-yl)pyrimidin-2-yl)-2,8-diazaspiro[4.5]decan-8-yl)-1-hydroxyethyl)-4-methylisobenzofuran-1(3H)-one], the pIC50 is 7.24.

In the case of `Cc1c([C@@H](O)CN2CCC3(CC2)CN(c2ccc(S(C)(=O)=O)cn2)C(=O)O3)ccc2c1COC2=O` [Example 91, (R)-8-(2-hydroxy-2-(4-methyl-1-oxo-1,3-dihydroisobenzofuran-5-yl)ethyl)-3-(5-(methylsulfonyl)pyridin-2-yl)-1-oxa-3,8-diazaspiro[4.5]decan-2-one], the pIC50 is 6.68.

The pIC50 is −log10 of the IC50, conventionally taken in molar units.
